# How the values were obtained:
# [1] = test system: talin1 and talin2; conditions: literature [83]; cited from earlier work
# [2] = test system: fibrosis; conditions: literature [4], [6]; cited from earlier work
# [3] = test system: human monocyte-myofibroblast differentiation; test: Human monocyte-myofibroblast de-differentiation assessed by morphology; format: cell-based; conditions: added to culture of human monocyte-myofibroblasts (FIG. 1A, 1B)
# Experimental: Monocytes were purified from PBMCs by use of a negative selection kit for human monocytes (Stemcell, Cambridge, MA), per the manufacturer's instructions. Approximately 20 million monocytes were purified from each filter. Monocytes were then washed by PBS using five successive 300×G centrifugation steps, in order to remove EDTA from the resulting population. Monocytes were checked for purity using flow cytometry, and average purity was above 95%. Monocytes were cultured immediately following purification, at 100,000 monocytes/cm^2.
# (§1) Human and mouse monocytes were cultured as previously described, using serum-free media (SFM). Briefly, SFM for human cells is composed of fibrolife (Lifeline, Frederick, MD), with 1× ITS-3 (Sigma, St. Louis, MO), 1× HEPES buffer (Sigma), 1× non-essential amino acids (Sigma), 1× sodium pyruvate (Sigma), and penicillin-streptomycin with glutamate (Sigma). For mouse monocytes, 2× concentrations of ITS-3, HEPES buffer, non-essential amino acids, and sodium pyruvate were added, with 50 μM β-mercaptoenthanol (ThermoFisher) and pro-fibrotic supplements M-CSF (25 ng/ml, Peprotech, Rocky Hill, NJ) and IL-13 (50 ng/ml) to induce myofibroblast differentiation. Additionally, M-CSF and IL-13 were refreshed in the media of mouse monocytes after 3 days of culture. Monocytes were allowed to differentiate for 5 days, and counted based on morphology as previously described. […]
# [4] = test system: human monocyte-derived myofibroblasts; test: Flow cytometry of human monocyte-derived myofibroblasts treated with antibodies or leukadherin; format: cell-based; conditions: antibody 500 ng/ml, leukadherin 2 ng/ml
# Description: (§2) Myofibroblasts were de-differentiated by addition of antibodies (α-αMβ2, α-αM, α-α3) for 7 days after the 5 day differentiation was completed. Antibodies were free of azide, glycerol, and other preservatives.
# (§3) Cultured myofibroblasts were lifted with ice cold trypsin-EDTA (Sigma), followed by mechanical agitation by a rubber policeman. Myofibroblasts were fixed and permeabilized using Cytofix/Cytoperm (BD biosciences, Franklin Lakes, NJ), and live-dead stained (live-dead aqua, ThermoFisher) per manufacturer's instructions. Antibodies used were α-collagen I (Biolegend, San Diego, CA), anti-α smooth muscle actin (αSMA) (R and D systems, Minneapolis, MN), α-ki-67 (BD biosciences), and α-talin2 (R and D systems). Compensation was performed via UltraComp beads (ThermoFisher) per the manufacturer's instructions.
# [5] = test system: human monocyte-derived myofibroblasts; test: Legendplex ELISA of conditioned media, human monocyte-derived myofibroblasts; format: cell-based; conditions: antibody 500 ng/ml, leukadherin 2 ng/ml
# Experimental: Supernatant from cultured human and mouse myofibroblasts were thawed at 4 C, and centrifuged at 4 C and 10,000×G to pellet cell debris. Supernatant was taken and added to 96 well round bottom plates, in duplicate. Legendplex (Biolegend) beads against general inflammation markers were added, according to the manufacturer's instructions. Sample readouts were normalized to each individual donor control.
# [6] = test system: mouse monocyte-derived myofibroblasts; test: Mouse monocyte-derived myofibroblast de-differentiation assessed by morphology; format: cell-based; conditions: 1 week (FIG. 2A, 2B)
# Description: Spleens were pushed through a 100 µm filter to disassociate the cells. Monocytes were purified from disassociated cells by use of a negative selection kit (Stemcell), following the manufacturer's instructions. The purified monocytes were then washed by PBS using five successive 300×G centrifugation steps, in order to remove EDTA from the resulting population. Monocytes were checked for purity using flow cytometry, and average purity was above 95%. The average yield was 1.5 million monocytes per spleen. Monocytes were cultured immediately following purification, at 250,000 monocytes/cm^2.
# as §1, with “Additionally, M-CSF and IL-13 were refreshed in the media of mouse monocytes after 3 days of culture.” left out
# [7] = test system: mouse monocyte-derived myofibroblasts; test: Flow cytometry of mouse monocyte-derived myofibroblasts treated with antibodies or leukadherin; format: cell-based; conditions: antibody 500 ng/ml
# Description: as §2, §3
# [8] = test system: mouse monocyte-derived myofibroblasts; test: Flow cytometry of mouse monocyte-derived myofibroblasts treated with siRNA; format: cell-based; conditions: 50 nM siRNA mixtures or individual siRNAs (FIG. 27D)
# Experimental: Human and mouse monocytes were cultured as previously described, using serum-free media (SFM). Briefly, SFM for human cells is composed of fibrolife (Lifeline, Frederick, MD), with 1× ITS-3 (Sigma, St. Louis, MO), 1× HEPES buffer (Sigma), 1× non-essential amino acids (Sigma), 1× sodium pyruvate (Sigma), and penicillin-streptomycin with glutamate (Sigma). For mice, 2× concentrations of ITS-3, HEPES buffer, non-essential amino acids, and sodium pyruvate are added. For mouse monocytes, […] beta-mercaptoenthanol (ThermoFisher) was also added, as were pro-fibrotic supplements M-CSF (25 ng/ml, Peprotech, Rocky Hill, NJ) and IL-13 (50 ng/ml). Additionally, M-CSF and IL-13 were refreshed in the media of mouse monocytes after 3 days of culture.
# Accell Silencing RNA (siRNA, Dharmacon, Lafayette, CO) is specifically engineered to penetrate cells without the use of transfection reagents, due to a cholesterol modification at one terminus of the sequence. […] Thus, Accell siRNA targets all cells in a population, not just those that are replicating. […] Lastly, Accell siRNA contains a modification that inhibits enzymatic digestion within cells. Thus, Accell siRNA made a natural choice for this experiment, and all siRNAs used in this study are Accell siRNA. siRNA was resuspended in RNAse-free ultrapure water, as per the manufacturer's instructions. […]
# [9] = test system: mouse fibroblast-derived myofibroblasts; test: Flow cytometry of mouse fibroblast-derived myofibroblasts treated with siRNA; format: cell-based; conditions: 50 nM siRNA
# Experimental: Human fibroblasts (MRC-5, ATCC, Manassas, VA) and mouse fibroblasts (NIH-3T3, ATCC) were cultured in SFM composed for human cells, with 1× concentrations of additives. TGF-b (Peprotech) was added to induce myofibroblast formation at 5 ng/ml. Cells were cultured at 10,000/cm^2, and TGF-β was refreshed in cultures weekly to maintain the myofibroblast phenotype.
# The SMARTpool of siRNA targeting human talin2 contained four target sequences, while the anti-parallel corresponding siRNA sequences actually silenced the mRNA. Target sequences: #1 (CCAGAAAACUGAACGAUUA) (SEQ ID NO:29), #2 (GCCCUGUCCUUAAAGAUUU) (SEQ ID NO:30), #3 (CGACUGUGGUUAAAUACUC) (SEQ ID NO:31), and #4 (CGAGAAAGCUUGUGAGUUU) (SEQ ID NO:32). SMARTpool targeting mouse talin2 also contained four target sequences: #1 […], #2 (CUGGAAAAUUCAGUGAUGA) (SEQ ID NO:26), #3 (CCCUGGAUUUUGAAGAACA) (SEQ ID NO:27), and #4 (CCAUCGAGUACAUAAAACA) (SEQ ID NO:28). Control non-targeting SMARTpools contained 4 target sequences, including: #1 (CCAGAAAACUGAACGAUUA) (SEQ ID NO:29), #2 (GCCCUGUCCUUAAAGAUUU) (SEQ ID NO:30), #3 (CGACUGUGGUUAAAUACUC) (SEQ ID NO:31), and #4 (CGAGAAAGCUUGUGAGUUU) (SEQ ID NO:32). Individual siRNA tested in mice was talin2 siRNA #2, target: 5′ CUGGAAAAUUCAGUGAUGA 3′ (SEQ ID NO:26), anti-sense: 5′ UCAUCACUGAAUUUUCCAG 3′ (SEQ ID NO:37). […]
# [10] = test system: bleomycin insult to mouse lungs; test: Bleomycin lung fibrosis model, lung instillation of talin2 siRNA; format: in vivo
# [11] = target: Integrin-αM (human, on monocyte-derived myofibroblasts) (human) (UniProt P11215); test: cell-based or functional assay
# [12] = target: Integrin αMβ2 (human, MAC1, on monocyte-derived myofibroblasts) (human) (UniProt P11215); test: cell-based or functional assay
compound,measurement,setting,value
O=C(COc1ccc2c(c1)OCO2)NC(=O)NCCc1c[nH]c2ccccc12 [KCH-1521],adhesion-dependent angiogenesis,[1],decreases adhesion-dependent angiogenesis
same,distinction between talin1 and talin2,[1],does not distinguish between talin1 and talin2
COC(=O)c1ccc2c(c1)NC(=O)/C2=C(\Nc1ccc(N(C)C(=O)CN2CCN(C)CC2)cc1)c1ccccc1 [nintedanib],effect on progression of fibrosis,[2],"slow, but do not reverse, the progression of fibrosis"
Cc1ccc(=O)n(-c2ccccc2)c1 [pirfenidone],effect on progression of fibrosis,[2],"slow, but do not reverse, the progression of fibrosis"
PRM-151: recombinant pentraxin-2,effect on progression of fibrosis,[2],shown even a modest ability to reverse fibrosis in some patients
leukadherin,myofibroblast de-differentiation or differentiation as determined by morphology,[3],promoted myofibroblasts differentiation
same,αSMA+ collagen I+ double positive cells,[4]; flow cytometry (FIG. 1C),increased the amount of αSMA^+ collagen I^+ double positive cells
same,talin2 expression,[4]; flow cytometry (FIG. 1D),"nor integrin interaction promoters (Gi14, leukadherin) significantly altered talin2 expression"
same,secreted MCP1,[5]; conditioned media after 1 week (FIG. 9A),promoted the secretion of MCP1
same,secreted IL-6,[5]; conditioned media after 1 week (FIG. 9C),promoted the secretion of MCP1 (FIG. 9A) and IL-6
same,myofibroblast de-differentiation or differentiation by morphology,[6],increased monocyte-derived myofibroblast differentiation
same,αSMA+ and collagen I+ double positive myofibroblasts,[7]; leukadherin 2 ng/ml (FIG. 2C),increased both the amount of α αSMA^+ and collagen I^+ double positive monocyte-myofibroblasts
same,talin2+ cells / talin2 concentration,[7]; leukadherin 2 ng/ml (FIG. 2D),increasing talin2 concentration in these cells
"talin2 siRNA #2: individual Accell siRNA against mouse talin2; target CUGGAAAAUUCAGUGAUGA (SEQ ID NO:26), antisense UCAUCACUGAAUUUUCCAG (SEQ ID NO:37) (Accell modifications, chemistry not fully specified)",αSMA and collagen I double-positive cells / myofibroblast differentiation,[8],inhibited myofibroblast differentiation by itself
same,αSMA and collagen I double-positive myofibroblasts,[9]; mouse cell cultures (FIG. 28C),most reduced both αSMA and collagen I double-positive
same,talin2 positive myofibroblasts,[9]; mouse cell cultures (FIG. 28D),most reduced both αSMA and collagen I double-positive (FIG. 28C) and talin2 positive (FIG. 28D) myofibroblasts
same,mouse weight,"[10]; 200 nM by lung instillation at 7, 9, 11, 14, 16, 18 days post bleomycin, to day 21 (FIG. 29A)",showed a lesser transient weight decrease than did the controls
same,amount of collagen in the lungs (hydroxyproline assay),"[10]; 200 nM by lung instillation x6, day 21 (FIG. 29B-C)",reduced the amount of collagen in the lungs
same,blinded Ashcroft scoring of Masson's trichrome-stained lung sections,"[10]; 200 nM by lung instillation x6, day 21 (FIG. 29D)",improved the histological readout of lung fibrosis
same,lung fibrosis in Masson's trichrome images,[10]; vs non-targeting siRNA and untreated fibrotic lungs (FIG. 29E-L),rescued lung fibrosis compared to non-targeting siRNA and untreated fibrotic lungs
α-αM (clone ICRF44) (antibody),IC50 for human monocyte-myofibroblast differentiation (de-differentiation by morphology),[11],59.7 ng/ml
"α-αMβ2 (MAC1, clone CBRM1/5) (antibody)",IC50 for human monocyte-myofibroblast differentiation (de-differentiation by morphology),[12],63.3 ng/ml

# Source: patent publication US20250319117A1, “METHODS AND COMPOSITIONS FOR TREATING FIBROSIS” (THE UNIVERSITY OF CHICAGO, priority 2021, published 2025)
